According to ChEMBL document CHEMBL3991601, “The target landscape of clinical kinase drugs” (Science, 2017):
Calls of active or inactive are those of the source.

Columns and labels:
[1] = biological target: T1, MAP/microtubule affinity-regulating kinase 4 (Homo sapiens, UniProt Q96L34)
T1 sequence (Q96L34 whole entry): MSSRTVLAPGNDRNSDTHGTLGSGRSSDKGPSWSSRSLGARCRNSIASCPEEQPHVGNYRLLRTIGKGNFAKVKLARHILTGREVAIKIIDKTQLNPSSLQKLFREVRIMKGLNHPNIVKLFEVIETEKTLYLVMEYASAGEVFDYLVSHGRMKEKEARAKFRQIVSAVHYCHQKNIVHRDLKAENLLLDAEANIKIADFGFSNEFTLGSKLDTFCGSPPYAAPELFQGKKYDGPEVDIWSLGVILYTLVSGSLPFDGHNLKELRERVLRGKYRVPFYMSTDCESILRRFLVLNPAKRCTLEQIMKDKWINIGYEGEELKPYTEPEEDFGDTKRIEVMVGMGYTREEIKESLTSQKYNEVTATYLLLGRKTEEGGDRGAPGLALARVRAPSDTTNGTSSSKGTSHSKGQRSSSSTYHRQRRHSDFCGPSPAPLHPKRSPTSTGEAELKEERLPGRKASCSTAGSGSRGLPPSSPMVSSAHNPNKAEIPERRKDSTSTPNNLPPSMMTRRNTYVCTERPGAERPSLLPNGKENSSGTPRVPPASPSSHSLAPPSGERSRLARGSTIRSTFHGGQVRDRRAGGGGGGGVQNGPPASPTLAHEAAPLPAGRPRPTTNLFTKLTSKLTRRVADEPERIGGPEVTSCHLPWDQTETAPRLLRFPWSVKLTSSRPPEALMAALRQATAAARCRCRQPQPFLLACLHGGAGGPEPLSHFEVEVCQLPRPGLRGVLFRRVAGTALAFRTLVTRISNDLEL

[2] = biological target: T2, Bifunctional phosphoribosylaminoimidazole carboxylase/phosphoribosylaminoimidazole succinocarboxamide synthetase (Homo sapiens, UniProt P22234)
T2 sequence (P22234 whole entry): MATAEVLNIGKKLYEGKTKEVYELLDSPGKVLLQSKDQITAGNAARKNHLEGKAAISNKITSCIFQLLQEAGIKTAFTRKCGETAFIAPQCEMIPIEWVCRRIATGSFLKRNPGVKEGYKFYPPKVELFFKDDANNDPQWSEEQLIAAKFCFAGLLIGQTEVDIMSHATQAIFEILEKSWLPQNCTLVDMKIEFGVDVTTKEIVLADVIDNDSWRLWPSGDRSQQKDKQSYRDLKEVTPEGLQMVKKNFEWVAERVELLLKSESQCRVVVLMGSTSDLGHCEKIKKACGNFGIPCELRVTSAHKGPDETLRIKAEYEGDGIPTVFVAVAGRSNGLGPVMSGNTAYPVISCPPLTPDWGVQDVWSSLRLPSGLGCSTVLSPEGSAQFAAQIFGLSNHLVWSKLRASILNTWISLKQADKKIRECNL

[3] = biological target: T3, Delta(24)-sterol reductase (Homo sapiens, UniProt Q15392)
T3 sequence (Q15392 whole entry): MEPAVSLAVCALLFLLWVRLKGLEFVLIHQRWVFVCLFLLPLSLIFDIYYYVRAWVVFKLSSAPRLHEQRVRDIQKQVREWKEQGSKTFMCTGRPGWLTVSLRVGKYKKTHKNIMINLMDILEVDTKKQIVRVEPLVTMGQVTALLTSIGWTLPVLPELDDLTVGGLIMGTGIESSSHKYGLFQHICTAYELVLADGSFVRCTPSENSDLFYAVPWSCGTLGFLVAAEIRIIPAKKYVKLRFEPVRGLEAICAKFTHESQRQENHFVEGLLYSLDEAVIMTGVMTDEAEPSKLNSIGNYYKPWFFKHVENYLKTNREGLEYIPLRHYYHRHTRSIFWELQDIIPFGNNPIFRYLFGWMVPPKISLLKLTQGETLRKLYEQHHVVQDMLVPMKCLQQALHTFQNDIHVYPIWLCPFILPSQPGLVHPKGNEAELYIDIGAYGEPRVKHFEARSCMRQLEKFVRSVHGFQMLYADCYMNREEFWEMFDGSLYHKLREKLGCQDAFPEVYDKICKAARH

[4] = biological target: T4, Serine/threonine-protein kinase Nek1 (Homo sapiens, UniProt Q96PY6)
T4 sequence (Q96PY6 whole entry): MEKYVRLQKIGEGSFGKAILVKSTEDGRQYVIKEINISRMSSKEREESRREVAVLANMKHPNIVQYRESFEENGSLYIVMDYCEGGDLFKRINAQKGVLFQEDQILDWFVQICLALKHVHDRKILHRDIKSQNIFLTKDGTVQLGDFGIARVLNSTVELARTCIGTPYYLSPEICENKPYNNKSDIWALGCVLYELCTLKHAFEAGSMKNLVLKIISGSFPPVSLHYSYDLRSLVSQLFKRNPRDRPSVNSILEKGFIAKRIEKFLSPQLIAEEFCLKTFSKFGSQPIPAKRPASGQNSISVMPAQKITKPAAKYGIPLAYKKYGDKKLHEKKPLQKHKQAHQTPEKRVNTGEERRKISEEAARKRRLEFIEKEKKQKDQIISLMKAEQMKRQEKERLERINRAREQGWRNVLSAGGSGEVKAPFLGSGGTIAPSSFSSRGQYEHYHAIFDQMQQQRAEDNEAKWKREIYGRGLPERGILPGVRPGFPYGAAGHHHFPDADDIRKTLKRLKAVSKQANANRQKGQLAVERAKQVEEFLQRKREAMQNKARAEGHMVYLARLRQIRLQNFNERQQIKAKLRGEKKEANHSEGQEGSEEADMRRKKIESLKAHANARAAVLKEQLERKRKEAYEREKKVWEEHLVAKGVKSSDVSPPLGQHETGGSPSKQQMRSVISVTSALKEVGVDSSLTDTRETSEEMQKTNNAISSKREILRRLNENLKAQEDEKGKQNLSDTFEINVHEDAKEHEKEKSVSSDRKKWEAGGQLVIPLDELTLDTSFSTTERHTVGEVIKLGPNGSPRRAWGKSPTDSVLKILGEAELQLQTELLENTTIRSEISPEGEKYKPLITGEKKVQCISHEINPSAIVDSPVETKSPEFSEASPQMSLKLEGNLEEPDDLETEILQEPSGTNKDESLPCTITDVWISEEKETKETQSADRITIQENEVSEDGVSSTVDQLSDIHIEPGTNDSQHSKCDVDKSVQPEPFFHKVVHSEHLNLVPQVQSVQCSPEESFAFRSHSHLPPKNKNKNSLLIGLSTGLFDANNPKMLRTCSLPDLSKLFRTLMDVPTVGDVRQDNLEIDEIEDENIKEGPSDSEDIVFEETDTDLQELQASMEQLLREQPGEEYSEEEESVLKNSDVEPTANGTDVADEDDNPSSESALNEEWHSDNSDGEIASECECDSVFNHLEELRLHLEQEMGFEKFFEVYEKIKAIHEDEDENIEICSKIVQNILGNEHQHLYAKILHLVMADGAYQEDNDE
Also: in the data inactive means no Kd found up to 30 µM.

Structure (SMILES)	Kd [1]	Kd [2]	Kd [3]	Kd [4]
CN1CCN(CCOc2cc(OC3CCOCC3)c3c(Nc4c(Cl)ccc5c4OCO5)ncnc3c2)CC1 [SARACATINIB]	> 30 µM (inactive)	> 30 µM (inactive)	> 30 µM (inactive)	> 30 µM (inactive)
CNC(=O)c1cc(Oc2ccc(NC(=O)Nc3cc(C(C)(C)C)nn3-c3ccc4ncccc4c3)c(F)c2)ccn1 [REBASTINIB]	> 30 µM (inactive)	> 30 µM (inactive)	> 30 µM (inactive)	> 30 µM (inactive)
C=CC(=O)N1CCC[C@H](n2c(=O)n(-c3ccc(Oc4ccccc4)cc3)c3c(N)ncnc32)C1	> 30 µM (inactive)	> 30 µM (inactive)	> 30 µM (inactive)	> 30 µM (inactive)
COc1ccc(S(=O)(=O)N(C(C)=O)c2ccccc2/C=C/c2cc[n+]([O-])cc2)cc1 [HMN-214]	> 30 µM (inactive)	> 30 µM (inactive)	> 30 µM (inactive)	> 30 µM (inactive)
COc1cc2c(Nc3ccc(Cl)c(Cl)c3F)ncnc2cc1OC[C@@H]1C[C@@H]2CN(C)C[C@@H]2C1 [TESEVATINIB]	> 30 µM (inactive)	> 30 µM (inactive)	> 30 µM (inactive)	> 30 µM (inactive)
CO[C@H]1C[C@@H]2CC[C@@H](C)[C@@](O)(O2)C(=O)C(=O)N2CCCC[C@H]2C(=O)O[C@H]([C@H](C)C[C@@H]2CC[C@@H](OC(=O)C(C)(CO)CO)[C@H](OC)C2)CC(=O)[C@H](C)/C=C(\C)[C@@H](O)[C@@H](OC)C(=O)[C@H](C)C[C@H](C)/C=C/C=C/C=C/1C [TEMSIROLIMUS]	> 30 µM (inactive)	> 30 µM (inactive)	> 30 µM (inactive)	> 30 µM (inactive)
Cn1cnc2c(F)c(Nc3ccc(Br)cc3F)c(C(=O)NOCCO)cc21 [BINIMETINIB]	> 30 µM (inactive)	> 30 µM (inactive)	> 30 µM (inactive)	> 30 µM (inactive)
COc1c(OCCCN2CCOCC2)ccc2c1N=C(NC(=O)c1cnc(N)nc1)N1CCN=C21 [COPANLISIB]	> 30 µM (inactive)	> 30 µM (inactive)	> 30 µM (inactive)	> 30 µM (inactive)
O=c1[nH]ccc2cc(OC3CCNCC3)ccc12 [SAR-407899 FREE BASE]	> 30 µM (inactive)	> 30 µM (inactive)	> 30 µM (inactive)	> 30 µM (inactive)
CNC(=O)c1cccc2cc(Oc3ccnc4cc(OCC5(N)CC5)c(OC)cc34)ccc12 [LUCITANIB]	> 30 µM (inactive)	> 30 µM (inactive)	> 30 µM (inactive)	> 30 µM (inactive)
C=CC(=O)Nc1cc2c(Nc3ccc(F)c(Cl)c3)ncnc2cc1C#CC(C)(C)N1CCN(C)CC1 [AV-412 FREE BASE]	> 30 µM (inactive)	> 30 µM (inactive)	> 30 µM (inactive)	> 30 µM (inactive)
C[C@@H](NC(=O)c1ncnc(N)c1Cl)c1ncc(C(=O)Nc2cc(C(F)(F)F)c(Cl)cn2)s1 [TOVORAFENIB]	> 30 µM (inactive)	> 30 µM (inactive)	> 30 µM (inactive)	> 30 µM (inactive)
NC(=O)Nc1cc(-c2cccc(F)c2)sc1C(=O)N[C@H]1CCCNC1 [AZD-7762]	0.475 µM (active)	> 30 µM (inactive)	> 30 µM (inactive)	> 30 µM (inactive)
NC(=O)c1c(OCc2c(F)cc(Br)cc2F)nsc1NC(=O)NCCCCN1CCCC1 [OSI-632]	> 30 µM (inactive)	> 30 µM (inactive)	> 30 µM (inactive)	> 30 µM (inactive)
Cn1cc(-c2cnn3c(N)c(Br)c([C@@H]4CCCNC4)nc23)cn1 [SCH-900776]	> 30 µM (inactive)	> 30 µM (inactive)	> 30 µM (inactive)	> 30 µM (inactive)
CCn1c(C(=O)N(C2CC2)C2CC2)cc2c3c(ncn3C)c(Nc3cc(C)n(C)n3)nc21 [BMS-911543]	> 30 µM (inactive)	> 30 µM (inactive)	> 30 µM (inactive)	> 30 µM (inactive)
FC(F)(F)c1ccc(/C=C/c2nc(COc3ccc(CCCCn4ccnn4)cc3)co2)cc1 [MUBRITINIB]	> 30 µM (inactive)	> 30 µM (inactive)	> 30 µM (inactive)	> 30 µM (inactive)
